Data from paper PMC8962522, “Direct interaction of TrkA/CD44v3 is essential for NGF-promoted aggressiveness of breast cancer cells” (Journal of Experimental & Clinical Cancer Research : CR, 2022).
“Also recorded” adds a separate entry of the source.

Tested on: CD44v3
Assay: MST binding of P4 to CD44v3
Details: Supplementary Fig. 6C, listed as P4
Experimental: MST was conducted using an NT.115 A Pico MST instrument (Nano Temper Technologies GmbH) equipped with red and blue filter sets. The TrkA-His tagged extracellular domain protein (Ala 34-Gly423) (9966-TK-050; R&D Systems, United Kingdom), diluted to 200 nM in PBS-T buffer (supplied by the vendor), was labeled using a Monolith His-Tag Labeling Kit with RED-Tris-NTA (Nano Temper). The RED-Tris-NTA dye was diluted in PBS-T to 100 nM. The mix was incubated at RT in the dark for 30 min. Next, an extract expressing CD44v3-labeled protein (CD44v3-His) and ligand and/or TrkA was mixed at a 1:1 ratio and incubated at RT in the dark for 15 min. For the binding check, peptides and TrkA-His were used. […] The data were analyzed using MO Control Software (Nano Temper).
To block the TrkA-CD44v3 association, 4 mimetic peptides of CD44v3 were designed corresponding to zone 1 [(K) STSSNTISAG], zone 2 (WEPNEENEDE), zone 3 (RDRHLSFSGSG) and zone 4 (IDDDEDFISST) (Fig. 2F & G). The binding capacities of the CD44v3 mimetic peptides to TrkA were then measured by MST (Fig. 2H). […] To confirm mimetic peptide 4 binding, we assessed its ability to bind TrkA using nanoscale differential scanning fluorimetry (nanoDSF; Supplementary Fig. 6A & B).
Supplementary file 13046_2022_2314_MOESM3_ESM.pdf: Additional file 3: Supplementary Figure 1. […] CD44v3 and CD44v6 levels at the plasma membrane were assessed by flow cytometry (A-D). […]

With “IDDDEDFISST [Peptide 4, mimetic peptide 4 (…) corresponding to the C-terminal region of CD44v3]” the “binding to CD44v3 (in words)” value was “we did not detect CD44v3/P4 binding; also recorded: binds to TrkA but not to CD44v3”.
